# Measurements taken from patent publication US20210161997A1, “TREATING DISEASES VIA TARGETED MODULATION OF GENE SIGNALING NETWORKS” (Camp4 Therapeutics Corporation, priority 2018, published 2021).
# What was measured:
# Format in all cases: cell-based
# [1] = test system: LECT2; assay: RNA-seq of LECT2 expression in compound-treated primary human hepatocytes
# Method: (§1) Human hepatocytes were obtained from two donors from Massachusetts General Hospital, namely MGH54 and MGH63, and one donor from Lonza, namely HUM4111B. Cryopreserved hepatocytes were cultured in plating media for 16 hours, transferred to maintenance media for 4 hours. Cultured on serum-free media for 2 hours, then a compound was added. The hepatocytes were maintained on the serum-free media for 16 hours prior to gene expression analysis. Primary human hepatocytes were stored in the vapor phase of a liquid nitrogen freezer (about −130° C.).
# (§2) Human hepatocytes cultured as described above were plated in 24-well format, adding 375,000 cells per well in a volume of 500 ul plating medium. Four hours before treatment, cells were washed with PBS and the medium was changed to either: fresh maintenance medium (complete) or modified maintenance medium.
# (§3) Compound stocks were prepared at 1000× final concentration and added in a 2-step dilution to the medium to reduce risk of a compound precipitating out of solution when added to the cells, and to ensure reasonable pipetting volumes. One at a time, each compound was first diluted 10-fold in warm (about 37° C.) modified maintenance medium (initial dilution=ID), mixed by vortexing, and the ID was diluted 100-fold into the cell culture (e.g. 5.1 ul into 1 well of a 24-well plate containing 0.5 mL medium). The plate was mixed by carefully swirling and after all wells were treated and returned to the incubator overnight. If desired, separate plates/wells were treated with vehicle-only controls and/or positive controls. If using multi-well plates, controls were included on each plate. After about 18 hours, cells were harvested for further analysis, e.g., ChIP-seq, RNA-seq, ATAC-seq, etc.
# (§4) This protocol is a modified version of the following protocols: MagMAX mirVana Total RNA Isolation Kit User Guide (Applied Biosystems #MAN0011131 Rev B.0), NEBNext Poly(A) mRNA Magnetic Isolation Module (E7490), and NEBNext Ultra Directional RNA Library Prep Kit for Illumina (E7420) (New England Biosystems #E74901).
# (§5) The MagMAX mirVana kit instructions (the section titled “Isolate RNA from cells” on pages 14-17) were used for isolation of total RNA from cells in culture. Two hundred μl of Lysis Binding Mix was used per well of the multiwell plate containing adherent cells (usually a 24-well plate).
# (§6) For mRNA isolation and library prep, the NEBNext Poly(A) mRNA Magnetic Isolation Module and Directional Prep kit was used. RNA isolated from cells above was quantified, and prepared in […] of each sample in 50 μl of nuclease-free water. This protocol may be run in microfuge tubes or in a 96-well plate.
# (§7) Standard QC were applied (read integrity, mapping statistics, library complexity, fragment bias) to remove unsatisfactory samples. […] Log 2 fold change and significance values were computed using PME count data (with replicates explicitly modeled versus pan-experiment controls), median ratio normalized, using maximum likelihood estimation rather than maximum a posteriori, and disabling the use of Cook's distance cutoff when determining acceptable adjusted p-values. […] RNA-seq signals were also normalized by read depth and visualized using the UCSC browser.
# (§8) To identify small molecules that modulate target gene expression, primary human hepatocytes were prepared as a monoculture, and at least one small molecule compound was applied to the cells.
# (§9) RNA-seq was performed to determine the effects of the compounds on the expression of the target genes in hepatocytes. Fold change was calculated by dividing the level of expression in the cell system that had been perturbed by the level of expression in an unperturbed system. Changes in expression having a p-value ≤0.05 were considered significant.
# (§10) Significance was defined as an FPKM ≥1, a log 2(fold change) ≥0.5, and a q-value of ≤0.05 for all targets except for CPOX.
# [2] = test system: SERPINC1 mRNA; assay: Quantitative PCR of SERPINC1 mRNA in mouse hepatocytes treated with compounds; conditions: for SERPINC1 mRNA, Mouse Heps, 1 uM: compound 1 uM; for SERPINC1 mRNA, Mouse Heps, 10 uM: compound 10 uM
# Method: Samples were amplified using Taqman probes from ThermoFisher.
# In some examples, RQ Min and RQ Max values are also reported. RQ Min and RQ Max are the minimum and maximum relative levels of gene expression in the test samples, respectively. They were calculated using the confidence level set in the analysis settings and the confidence level was set to one standard deviation (SD). These values were calculated using standard deviation as follows: […].
# Compounds were tested in hepatocytes for upregulation of SERPINC1 mRNA for identification of potential treatments of SERPINC1/AT III deficiency.
# [3] = test system: SERPINC1 mRNA; assay: Quantitative PCR of SERPINC1 mRNA in primary human hepatocytes (Lonza Hu4282) treated with compounds; conditions: quantitative PCR; for SERPINC1 mRNA, Lonza Hu4282, 1 uM / SERPINC1 mRNA, Lonza Hu4282, 10 uM: primary human hepatocytes Lonza Hu4282; for SERPINC1 mRNA, Lonza Hu4282, 1 uM / SERPINC1 mRNA, H8290, 1 uM: compound 1 uM; for SERPINC1 mRNA, Lonza Hu4282, 10 uM / SERPINC1 mRNA, H8290, 10 uM: compound 10 uM; for SERPINC1 mRNA, H8290, 1 uM / SERPINC1 mRNA, H8290, 10 uM: hepatocytes H8290
# [4] = test system: JAG1; assay: RNA-seq of JAG1 expression in compound-treated primary human hepatocytes; conditions: for JAG1 Fold Change (Log2): primary human hepatocytes; for Significant modulation of JAG1 (in words): summary of Table 6
# Method: (§11) Human hepatocytes were obtained from two donors from Massachusetts General Hospital, namely MGH54 and MGH63, and one donor from Lonza, namely HUM4111B. Cryopreserved hepatocytes were cultured in plating media for 16 hours, transferred to maintenance media for 4 hours. Cultured on serum-free media for 2 hours, then a compound was added. The hepatocytes were maintained on the serum-free media for 16 hours prior to gene expression analysis. Primary human hepatocytes were stored in the vapor phase of a liquid nitrogen freezer (about -130° C.). Human hepatocytes cultured as described above were plated in 24-well format, adding 375,000 cells per well in a volume of 500 ul plating medium. Four hours before treatment, cells were washed with PBS and the medium was changed to either: fresh maintenance medium (complete) or modified maintenance medium. Compound stocks were prepared at 1000× final concentration and added in a 2-step dilution to the medium to reduce risk of a compound precipitating out of solution when added to the cells, and to ensure reasonable pipetting volumes. […] The plate was mixed by carefully swirling and after all wells were treated and returned to the incubator overnight. If desired, separate plates/wells were treated with vehicle-only controls and/or positive controls. If using multi-well plates, controls were included on each plate. After about 18 hours, cells were harvested for further analysis, e.g., ChIP-seq, RNA-seq, ATAC-seq, etc. This protocol is a modified version of the following protocols: MagMAX mirVana Total RNA Isolation Kit User Guide (Applied Biosystems #MAN0011131 Rev B.0), NEBNext Poly(A) mRNA Magnetic Isolation Module ([…]), and NEBNext Ultra Directional RNA Library Prep Kit for Illumina ([…]) (New England Biosystems #E74901). […] Two hundred μl of Lysis Binding Mix was used per well of the multiwell plate containing adherent cells (usually a 24-well plate). For mRNA isolation and library prep, the NEBNext Poly(A) mRNA Magnetic Isolation Module and Directional Prep kit was used. RNA isolated from cells above was quantified, and prepared in […] of each sample in 50 μl of nuclease-free water. This protocol may be run in microfuge tubes or in a 96-well plate. […] Genomic alignments were converted to transcriptome alignments based on reference transcript annotations from the Human GENCODE Gene Set release 24 (Harrow et al., Genome Res. […] Standard QC were applied (read integrity, mapping statistics, library complexity, fragment bias) to remove unsatisfactory samples. Differential gene expression was computed using the negative binomial model implemented by DESeq2 version 1.16.1 (Love et al., Genome Biol. (2014) 15(12):550). […] RNA-seq signals were also normalized by read depth and visualized using the UCSC browser. To identify small molecules that modulate target gene expression, primary human hepatocytes were prepared as a monoculture, and at least one small molecule compound was applied to the cells. RNA-seq was performed to determine the effects of the compounds on the expression of the target genes in hepatocytes. Fold change was calculated by dividing the level of expression in the cell system that had been perturbed by the level of expression in an unperturbed system.
# [5] = test system: NOTCH2; assay: RNA-seq of NOTCH2 expression in compound-treated primary human hepatocytes; conditions: for NOTCH2 Fold Change (Log2): primary human hepatocytes
# Method: as §11
# [6] = test system: ANGPTL3; assay: RNA-seq of ANGPTL3 expression in compound-treated primary human hepatocytes; conditions: additional compounds (Table 13), linear fold change
# Summary of the method: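 Cryopreserved primary human hepatocytes from three donors, plated at 375,000 cells/well, switched to complete or modified maintenance medium, then dosed with compound (stocks at 1000× final) for about 18 h. Poly(A) mRNA was sequenced directionally, mapped to GRCh38 with STAR, and gene-level abundance (counts, FPKM) estimated with RSEM against GENCODE 24.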
# [7] = test system: UGT1A1; assay: RNA-seq of UGT1A1 expression in compound-treated primary human hepatocytes
# Method: as §1, §2, §3, §4, §5, §6, §7, §8, §9, §10
molecule,measurement,setting,value
COc1cc2ncnc(Nc3ccc(Oc4ccccc4)cc3C)c2cc1OC.Cl [APS-2-79],LECT2 Fold Change (Log2),[1],−0.68 Log2
O=C(Nc1c[nH]nc1-c1nc2ccc(CN3CCOCC3)cc2[nH]1)NC1CC1 [AT9283],"SERPINC1 mRNA, Mouse Heps, 1 uM",[2],1.11
same,"SERPINC1 mRNA, Mouse Heps, 10 uM",[2],1.81
same,"SERPINC1 mRNA, Lonza Hu4282, 1 uM",[3],0.91
same,"SERPINC1 mRNA, Lonza Hu4282, 10 uM",[3],2.2
CCNC(=O)Nc1ccc(-c2nc(N3CCOC[C@@H]3C)c3c(n2)C(C)(C)S(=O)(=O)C3)cc1 [CZ415],"SERPINC1 mRNA, Mouse Heps, 1 uM",[2],2.2
same,"SERPINC1 mRNA, Mouse Heps, 10 uM",[2],2.5
same,"SERPINC1 mRNA, H8290, 1 uM",[3],1.4
same,"SERPINC1 mRNA, H8290, 10 uM",[3],2.3
same,"SERPINC1 mRNA, Lonza Hu4282, 1 uM",[3],1.25
same,"SERPINC1 mRNA, Lonza Hu4282, 10 uM",[3],1.42
Cn1cc(C2=C(c3cn(C4CCN(Cc5ccccn5)CC4)c4ccccc34)C(=O)NC2=O)c2ccccc21 [Enzastaurin],JAG1 Fold Change (Log2),[4],1.03 Log2
same,Significant modulation of JAG1 (in words),[4],significantly modulate only JAG1
same,NOTCH2 Fold Change (Log2),[5],0 Log2
same,ANGPTL3-LINEAR FOLD CHANGE,[6],0.2176
c1cc(-c2cnn3cc(-c4ccc(N5CCNCC5)cc4)cnc23)c2cccnc2c1 [LDN-212854],JAG1 Fold Change (Log2),[4],1.47 Log2
same,Significant modulation of JAG1 (in words),[4],significantly modulate only JAG1
same,NOTCH2 Fold Change (Log2),[5],0 Log2
Cc1ccc(C(=O)Nc2ccc(Oc3cc4cnn(C)c4cc3-c3cn[nH]c3)c(F)c2)c(=O)n1-c1ccc(F)cc1 [Merestinib],JAG1 Fold Change (Log2),[4],0.76 Log2
same,Significant modulation of JAG1 (in words),[4],significantly modulate both JAG1 and NOTCH2
same,NOTCH2 Fold Change (Log2),[5],0.62 Log2
same,Significant modulation of NOTCH2 (in words),[5]; summary of Table 6,significantly modulate both JAG1 and NOTCH2
same,UGT1A1 Fold Change (Log2),[7],0.76 Log2
O=[N+]([O-])c1ccc(Sc2cccc[n+]2[O-])c2nonc12 [NSC228155],LECT2 Fold Change (Log2),[1],−0.74 Log2
[H]/N=C(/N)N/C(=N/[H])NCCc1ccccc1 [Phenformin],JAG1 Fold Change (Log2),[4],1.14 Log2
same,Significant modulation of JAG1 (in words),[4],significantly modulate only JAG1
same,NOTCH2 Fold Change (Log2),[5],0 Log2
"CCCC(=O)O[C@@H]1[C@@H](C)[C@@]2(O)[C@@H](C=C(CO)C[C@]3(O)C(=O)C(C)=C[C@@H]23)[C@@H]2C(C)(C)[C@]12OC(=O)CCC [Phorbol 12,13-dibutyrate]",LECT2 Fold Change (Log2),[1],−0.65 Log2
CO[C@H]1/C=C/O[C@@]2(C)Oc3c(C)c(O)c4c(O)c(c(/C=N/N5CCN(C)CC5)c(O)c4c3C2=O)NC(=O)/C(C)=C\C=C\[C@H](C)[C@H](O)[C@@H](C)[C@@H](O)[C@@H](C)[C@H](OC(C)=O)[C@@H]1C [Rifampicin],LECT2 Fold Change (Log2),[1],−0.88 Log2
CN1C/C=C/CCOc2cccc(c2)-c2ccnc(n2)Nc2cccc(c2)C1 [SB1317/TG02],"SERPINC1 mRNA, Mouse Heps, 1 uM",[2],1.13
same,"SERPINC1 mRNA, Mouse Heps, 10 uM",[2],1.85
same,"SERPINC1 mRNA, Lonza Hu4282, 1 uM",[3],1.9
same,"SERPINC1 mRNA, Lonza Hu4282, 10 uM",[3],2.28
COc1cccc2cc(-c3nc([C@H]4CC[C@H](C(=O)O)CC4)n4ncnc(N)c34)[nH]c12 [compound 308 (OSI-027)],"SERPINC1 mRNA, Mouse Heps, 1 uM",[2],1.53
same,"SERPINC1 mRNA, Mouse Heps, 10 uM",[2],2.36
same,"SERPINC1 mRNA, H8290, 1 uM",[3],1.7
same,"SERPINC1 mRNA, H8290, 10 uM",[3],1.9
"GDF2 (BMP9): TGF-beta activator (protein, UniProt Q9UK05 320-429, looked up) Growth/differentiation factor …: SAGAGSHCQKTSLRVNFEDIGWDSWIIAPKEYEAYECKGGCFFPLADDVTPTKHAIVQTLVHLKFPTKVGKACCVPTKLSPISVLYKDDMGVPTLKYHYEGMSVAECGCR",JAG1 Fold Change (Log2),[4],1.03 Log2
same,Significant modulation of JAG1 (in words),[4],significantly modulate only JAG1
same,NOTCH2 Fold Change (Log2),[5],0 Log2
"BMP4: TGF-beta activator (protein, UniProt P12644 293-408, looked up) Bone morphogenetic protein 4: SPKHHSQRARKKNKNCRRHSLYVDFSDVGWNDWIVAPPGYQAFYCHGDCPFPLADHLNSTNHAIVQTLVNSVNSSIPKACCVPTELSAISMLYLDEYDKVVLKNYQEMVVEGCGCR",JAG1 Fold Change (Log2),[4],0.63 Log2
same,Significant modulation of JAG1 (in words),[4],significantly modulate only JAG1
same,NOTCH2 Fold Change (Log2),[5],0 Log2
same,ANGPTL3-LINEAR FOLD CHANGE,[6],0.3463
